The experiment has as its system adenohypophysis of female Sprague-Dawley rats (cell cultures), LH-hormone released from the cells. The following applies: for ED50 (LH release): rat pituitary cell culture, 4 hours incubation with 10^-7 to 10^-12 molar peptide; for relative activity (GnRH = 1.00): relative LH-releasing activity versus GnRH, from ED50 values.

Like-named read-outs stand apart in the source and are kept apart here.

Method: The LH-releasing activity of the new peptides according to the invention was tested by the following method, in which for comparison the known gonadoliberin was employed under the same conditions.
The adenohypophysis of female Sprague-Dawley rats weighing 150-200 g each was eliminated and pretrypsinized. Approximately 40-50 pituitaries were placed into separate flasks and allowed to stand in 25 ml of a 0.25% trypsin solution (Sigma, type 111) at 0° to 4° C. for 16 hours. The pituitaries were then stirred under a 5% CO2 atmosphere at 37° C. for 20-25 minutes while they were decomposed to their cells. To the cell suspension soya-bean trypsin inhibitor was added whereupon it was suspended and centrifuged in a Medium 199 solution (with Earle's salts, Flow Laboratories, UK) three times (800 x g, 10 minutes). The cell suspension was padded through a sterile metal filter and the number of cells in one ml was counted. After counting, 3 ml of the cell suspension was dispensed into culture flasks each containing 1.8×10^6 cells. The cells were cultured for 3 days at 37° C. under a 5% CO2 atmosphere. On the 3rd day the medium was replaced by a fresh one and incubation was continued for one more day. On the 4th day the medium was changed again and a medium containing a 10^-7 to 10^-12 molar solution of the peptides to be tested was added to the cell cultures. The cells were incubated with the peptide solutions for 4 hours, the culture solutions were eliminated and the amount of the LH-hormone released from the cells was determined by radioimunoassay.

Take “Glp-His-Trp-Ser-Tyr-D-Thx-Leu-Arg-Pro-Gly-NH2 [D-Thx^6 -GnRH]”: the “ED50 (LH release)” value is recorded as 0.02892 nM and the “relative activity (GnRH = 1.00)” value is recorded as 11.9.
For “Glp-His-Trp-Ser-Tyr-D-Cpa-Leu-Arg-Pro-Gly-NH2 [D-Cpa^6 -GnRH]”, the “ED50 (LH release)” value turned out to be 0.02063 nM and the “relative activity (GnRH = 1.00)” value was determined as 16.6.
In the case of “Gonadoliberin [GnRH, reference compound]”, the “relative activity (GnRH = 1.00)” value came to 1.00. For the setting “unit as printed for GnRH”, the ED50 (LH release) was found to be 0.343 nM.

The values are drawn from patent US4552864A, “Gonadoliberin derivatives process for the preparation and pharmaceutical compositions thereof” (Reanal Finomvegyszergyar, priority 1982, dated 1985).
